Earlier results, collected in patent US10925925B2, “Therapy of atherosclerosis, primary biliary cirrhosis and NRLP3 inflammasome-associated disease by HTCP inhibitors” (MYR GmbH, priority 2017, dated 2021).
Like-named read-outs stand apart in the source and are kept apart here.

Experiments:
patients with PBC [1] = settings: month 12, placebo arm 10%
patients with PBC [2] = settings: PBC patients treated with UDCA

Compound: CC[C@H]1[C@@H](O)[C@@H]2[C@H](CC[C@]3(C)[C@@H]([C@H](C)CCC(=O)O)CC[C@@H]23)[C@@]2(C)CC[C@@H](O)C[C@@H]12 [OCA, obeticholic acide]
- patients achieving the primary endpoint (predominantly reduction in ALP) (patients with PBC [1]; OCA 10 mg arm): 47%
- patients achieving the primary endpoint (predominantly reduction in ALP) (patients with PBC [1]; OCA titration arm): 46%

Compound: C[C@H](CCC(=O)O)[C@H]1CC[C@H]2[C@@H]3[C@@H](O)C[C@@H]4C[C@H](O)CC[C@]4(C)[C@H]3CC[C@]12C [UDCA, ursodeoxicholic acid]
- patients who do not achieve adequate biochemical response (patients with PBC [2]): about 40%
